Data as given in patent US20120258980A1, “Antibacterial Agent for Drug-Resistant Bacteria, Method for Screening for Same, and Use of Same” (priority 2009, published 2012).
≈ marks a conversion by molar mass, not a printed value. Where two headings read alike, the source gives them in different places.

How the values were obtained:
[1] = tested on: methicillin-susceptible S. aureus (MSSA), MRSA and mutants thereof; test: MIC measurement, Test Example 3 (MSSA, MRSA and sequential gyrA/grlA quinolone-resistant mutants); format: cell-based, Staphylococcus aureus; settings: Staphylococcus aureus
From the text: That is, the first-step quinolone-resistant mutants are bacterial strains which are the same as their parent strains (clinical isolates) except that the genes shown in the corresponding parts of Table 1-1 are mutated. The second-step quinolone-resistant mutants are bacterial strains which are the same as the first-step quinolone-resistant mutants except that the genes shown in the corresponding parts of Table 1-1 are further mutated. The third-step quinolone-resistant mutants are bacterial strains which are the same as the second-step quinolone-resistant mutants except that the genes shown in the corresponding parts of Table 1-1 are further mutated. The fourth-step quinolone-resistant strain is a bacterial strain which is the same as the third-step quinolone-resistant mutant bacteria except that the gene shown in the corresponding part of Table 1-1 is further mutated.
(§1) Each of the bacterial strains listed in Table 1-1 was shake-cultured at 37° C. overnight in 4 mL of a medium (Tryptical Soy Broth: TSB, product of Becton Dickinson and Company). FDA209P was used as a control.
(§2) After completion of culturing, the resultant culture was suspended in a cation-adjusted Mueller Hinton Broth (CAMHB, product of Becton Dickinson and Company). Then, the obtained bacterial culture was adjusted in absorbance with the CAMHB so that the absorbance at 578 nm of the bacterial culture was adjusted to 0.3 measured by an absorption spectrometer. In addition, the resultant bacterial culture was 500-fold diluted with the CAMHB.
(§3) Each of the 500-fold diluted, pre-cultured bacterial cultures was added at 50 μL/well to the CAMHB containing the quinolones and the nybomycins at various concentrations (50 μL/well), followed by statically culturing at 37° C. overnight.
(§4) After completion of culturing, the growth of the bacteria was visually determined based on turbidity to measure MIC in each bacterial strain.

[2] = tested on: VISA clinical isolates of MRSA (VI-MRSA) and of MSSA (VI-MSSA); test: microbe, parasite or virus in culture; format: cell-based, Staphylococcus aureus
Method: as §1, §2, §3, §4
(§5) Here, the glycopeptides used were VCM and TEIC. The β-lactam used was OXA.

VRSA clinical isolates = test: microbe, parasite or virus in culture; format: cell-based; settings: Staphylococcus aureus
Method: as §1, §2, §3, §4, §5

Enterococcus faecalis = test: MIC measurement, Test Example 6 (enterococcus); format: cell-based; settings: Enterococcus faecalis, read-out: MIC
Method: as §1, §2, §3, §4
Quinolones and nybomycins were evaluated for antibacterial activity against Enterococcus faecalis shown in Table 6, wherein the other strains than NCTC12201 and NCTC12203 were subdivided from Shionogi & Co., Ltd (note that these strains are available also from the Department of Bacteriology, Juntendo University). The NCTC strains are both vancomycin-resistant E. faecalis and available from the National Collection of Type Cultures (NCTC).

With C[C@H]1COc2c(N3CCN(C)CC3)c(F)cc3c(=O)c(C(=O)O)cn1c23 [LVFX, levofloxacin] the MIC ([1]; FDA209P / MRSA / MSSA, FDA209P (MSSA), control, read-out: MIC) was ≤ 0.063 µg/mL, the MIC ([1]; MR5867-4, fourth-step mutant, further gyrA E88K) was > 128 µg/mL and the MIC ([1]; MS5935-3, third-step mutant, further grlA E84K) was 64 µg/mL (≈ 177 µM). The MIC ([1]; MS5952-3, third-step mutant, further grlA A116V) was 32 µg/mL (≈ 88.6 µM), the MIC ([2]; Staphylococcus aureus, 99/3700-W, VI-MRSA, The United Kingdom) was 16 µg/mL (≈ 44.3 µM) and the MIC ([2]; Staphylococcus aureus, 99/3759-V, VI-MRSA, The United Kingdom) was 16 µg/mL (≈ 44.3 µM). The MIC ([2]; Staphylococcus aureus, 28160, VI-MRSA, South African Republic) was 8 µg/mL (≈ 22.1 µM), the MIC ([2]; Staphylococcus aureus, 98141, VI-MRSA, France) was 16 µg/mL (≈ 44.3 µM) and the MIC ([2]; Staphylococcus aureus, A7 (JCSC4842), VI-MRSA, Taiwan) was 8 µg/mL (≈ 22.1 µM). The MIC ([2]; Staphylococcus aureus, AMC11094, VI-MRSA, Korea) was 16 µg/mL (≈ 44.3 µM), the MIC ([2]; Staphylococcus aureus, B7 (JCSC4852), VI-MRSA, Taiwan) was 8 µg/mL (≈ 22.1 µM) and the MIC ([2]; Staphylococcus aureus, BR1, VI-MRSA, Brazil) was 16 µg/mL (≈ 44.3 µM). For the same molecule, the MIC ([2]; Staphylococcus aureus, BR2, VI-MRSA, Brazil) was 8 µg/mL (≈ 22.1 µM), the MIC ([2]; Staphylococcus aureus, BR3, VI-MRSA, Brazil) was 16 µg/mL (≈ 44.3 µM) and the MIC ([2]; Staphylococcus aureus, BR4, VI-MRSA, Brazil) was 8 µg/mL (≈ 22.1 µM). For the same molecule, the MIC ([2]; Staphylococcus aureus, BR5, VI-MRSA, Brazil) was 16 µg/mL (≈ 44.3 µM), the MIC ([2]; Staphylococcus aureus, HIP06297, VI-MRSA, America) was 4 µg/mL (≈ 11.1 µM) and the MIC ([2]; Staphylococcus aureus, HIP06854, VI-MRSA, America) was 16 µg/mL (≈ 44.3 µM). It also gave an MIC ([2]; Staphylococcus aureus, HIP07920, VI-MRSA, America) of 8 µg/mL (≈ 22.1 µM), an MIC ([2]; Staphylococcus aureus, HIP07930, VI-MRSA, America) of 32 µg/mL (≈ 88.6 µM) and an MIC ([2]; Staphylococcus aureus, HIP08926, VI-MRSA, America) of 16 µg/mL (≈ 44.3 µM). It also gave an MIC ([2]; Staphylococcus aureus, HIP09143, VI-MRSA, America) of 32 µg/mL (≈ 88.6 µM), an MIC ([2]; Staphylococcus aureus, HIP09313, VI-MRSA, America) of 8 µg/mL (≈ 22.1 µM) and an MIC ([2]; Staphylococcus aureus, HIP09433, VI-MRSA, America) of 32 µg/mL (≈ 88.6 µM). For the same molecule, the MIC ([2]; Staphylococcus aureus, HIP09662, VI-MRSA, America) was 32 µg/mL (≈ 88.6 µM), the MIC ([2]; Staphylococcus aureus, HIP09735, VI-MRSA, America) was 8 µg/mL (≈ 22.1 µM) and the MIC ([2]; Staphylococcus aureus, HIP09737, VI-MSSA, America) was 32 µg/mL (≈ 88.6 µM). The MIC ([2]; Staphylococcus aureus, HIP09740, VI-MRSA, America) was 32 µg/mL (≈ 88.6 µM), the MIC ([2]; Staphylococcus aureus, HIP10267, VI-MRSA, America) was 32 µg/mL (≈ 88.6 µM) and the MIC ([2]; Staphylococcus aureus, HIP10540, VI-MRSA, America) was 8 µg/mL (≈ 22.1 µM). The MIC ([2]; Staphylococcus aureus, HIP12864, VI-MRSA, America) was 32 µg/mL (≈ 88.6 µM), the MIC ([2]; Staphylococcus aureus, HIP13036, VI-MRSA, America) was 4 µg/mL (≈ 11.1 µM) and the MIC ([2]; Staphylococcus aureus, HIP13057, VI-MRSA, America) was 16 µg/mL (≈ 44.3 µM). The MIC ([2]; Staphylococcus aureus, IL (HIP7737), VI-MRSA, America) was 32 µg/mL (≈ 88.6 µM), the MIC ([2]; Staphylococcus aureus, JCSC7193, VI-MRSA, Thailand) was 16 µg/mL (≈ 44.3 µM) and the MIC ([2]; Staphylococcus aureus, JCSC7195, VI-MRSA, Thailand) was 32 µg/mL (≈ 88.6 µM). The MIC ([2]; Staphylococcus aureus, JCSC7203, VI-MRSA, Thailand) was 16 µg/mL (≈ 44.3 µM), the MIC ([2]; Staphylococcus aureus, LIM2, VI-MRSA, France) was 32 µg/mL (≈ 88.6 µM) and the MIC ([2]; Staphylococcus aureus, LY-1999-01, VI-MSSA, Oman) was 4 µg/mL (≈ 11.1 µM). For the same molecule, the MIC ([2]; Staphylococcus aureus, LY-1999-03, VI-MRSA, Oman) was 4 µg/mL (≈ 11.1 µM), the MIC ([2]; Staphylococcus aureus, MI (HIP5827), VI-MRSA, America) was 32 µg/mL (≈ 88.6 µM) and the MIC ([2]; Staphylococcus aureus, MRSA / MSSA / NRS 76 / VISA, NRS76, VI-MSSA, America) was 16 µg/mL (≈ 44.3 µM). It also gave an MIC ([2]; Staphylococcus aureus, MRSA / MSSA / NRS 79 / VISA, NRS79, VI-MRSA, America) of 64 µg/mL (≈ 177 µM), an MIC ([2]; Staphylococcus aureus, MRSA / MSSA / NRS 118 / VISA, NRS118, VI-MRSA, America) of 32 µg/mL (≈ 88.6 µM) and an MIC ([2]; Staphylococcus aureus, MRSA / MSSA / NRS 126 / VISA, NRS126, VI-MRSA, America) of 4 µg/mL (≈ 11.1 µM). It also gave an MIC ([2]; Staphylococcus aureus, Mu3, VI-MRSA, Japan) of 16 µg/mL (≈ 44.3 µM), an MIC ([2]; Staphylococcus aureus, Mu50, VI-MRSA, Japan) of 8 µg/mL (≈ 22.1 µM) and an MIC ([2]; Staphylococcus aureus, NJ (HIP5836), VI-MRSA, America) of 16 µg/mL (≈ 44.3 µM). For the same molecule, the MIC ([2]; Staphylococcus aureus, P1V44, VI-MSSA, Belgium) was 4 µg/mL (≈ 11.1 µM), the MIC ([2]; Staphylococcus aureus, PC, VI-MRSA, America) was 8 µg/mL (≈ 22.1 µM) and the MIC ([2]; Staphylococcus aureus, SA MER-S6, VI-MSSA, France) was 0.5 µg/mL (≈ 1.38 µM). It also gave an MIC ([2]; Staphylococcus aureus, SA MER-S12, VI-MSSA, France) of 0.5 µg/mL (≈ 1.38 µM), an MIC ([2]; Staphylococcus aureus, SA MER-S20, VI-MSSA, France) of 0.125 µg/mL (≈ 0.346 µM) and an MIC (VRSA clinical isolates; VRS1, VRSA, Michigan) of 16 µg/mL (≈ 44.3 µM). It also gave an MIC (VRSA clinical isolates; VRS2, VRSA, Pennsylvania) of 16 µg/mL (≈ 44.3 µM), an MIC (VRSA clinical isolates; VRS3, VRSA, New York) of 16 µg/mL (≈ 44.3 µM) and an MIC (VRSA clinical isolates; VRS4, VRSA, New York) of 32 µg/mL (≈ 88.6 µM). The MIC (VRSA clinical isolates; VRS5, VRSA, Michigan) was > 128 µg/mL, the MIC (VRSA clinical isolates; VRS6, VRSA, Michigan) was 32 µg/mL (≈ 88.6 µM) and the MIC (VRSA clinical isolates; VRS7, VRSA, Michigan) was 32 µg/mL (≈ 88.6 µM). It also gave an MIC (Enterococcus faecalis; E. faecalis 36-15672, quinolone-susceptible enterococci) of 1 µg/mL (≈ 2.77 µM), an MIC (Enterococcus faecalis; E. faecalis 36-15673, quinolone-susceptible enterococci) of 1 µg/mL (≈ 2.77 µM) and an MIC (Enterococcus faecalis; E. faecalis 36-15678, quinolone-susceptible enterococci) of 1 µg/mL (≈ 2.77 µM). The MIC (Enterococcus faecalis; E. faecalis 36-15686, quinolone-resistant enterococci) was 64 µg/mL (≈ 177 µM), the MIC (Enterococcus faecalis; E. faecalis 36-15688, quinolone-susceptible enterococci) was 1 µg/mL (≈ 2.77 µM) and the MIC (Enterococcus faecalis; E. faecalis 36-15694, quinolone-resistant enterococci) was 64 µg/mL (≈ 177 µM). For the same molecule, the MIC (Enterococcus faecalis; E. faecalis 36-15696, quinolone-susceptible enterococci) was 1 µg/mL (≈ 2.77 µM), the MIC (Enterococcus faecalis; E. faecalis 36-15703, quinolone-resistant enterococci) was 32 µg/mL (≈ 88.6 µM) and the MIC (Enterococcus faecalis; E. faecalis 36-15716, quinolone-resistant enterococci) was 32 µg/mL (≈ 88.6 µM). It also gave an MIC (Enterococcus faecalis; E. faecalis 36-15718, quinolone-susceptible enterococci) of 2 µg/mL (≈ 5.53 µM), an MIC (Enterococcus faecalis; E. faecalis 36-15720, quinolone-susceptible enterococci) of 1 µg/mL (≈ 2.77 µM) and an MIC (Enterococcus faecalis; E. faecalis 36-15722, quinolone-resistant enterococci) of 64 µg/mL (≈ 177 µM). The MIC (Enterococcus faecalis; E. faecalis 36-15726, quinolone-resistant enterococci) was 64 µg/mL (≈ 177 µM), the MIC (Enterococcus faecalis; E. faecalis 36-15730, quinolone-susceptible enterococci) was 2 µg/mL (≈ 5.53 µM) and the MIC (Enterococcus faecalis; E. faecalis 36-15736, quinolone-susceptible enterococci) was 1 µg/mL (≈ 2.77 µM). The MIC (Enterococcus faecalis; E. faecalis 36-15741, quinolone-susceptible enterococci) was 2 µg/mL (≈ 5.53 µM), the MIC (Enterococcus faecalis; NCTC 12201 / VRE, E. faecalis NCTC12201, vancomycin-resistant (VRE), quinolone-susceptible enterococci) was 1 µg/mL (≈ 2.77 µM) and the MIC (Enterococcus faecalis; NCTC 12203 / VRE, E. faecalis NCTC12203, vancomycin-resistant (VRE), quinolone-susceptible enterococci) was 1 µg/mL (≈ 2.77 µM).
